# Source: US8859760B2, “Compositions for killing or preventing the growth of microbes” (priority 2008, dated 2014)
# Test system: skin of the mice
# Test: Skin irritation test in mice (Draize scoring, Primary Irritation Index)
# Assay type: in vivo, Balb/c mice
# Details: for primary irritation index: 24 hr exposure, scored at 24 and 72 hours; for primary irritation index / evaluation of primary irritation index: mice; for mice with very slight erythema: n=6
# Experimental: Lauryl methyl pyrifrin and TMP, two synthesized meso-substituted cationic porphyrins, were tested in vivo to determine the dermal irritation potential to the skin of the mice. The two test agents were prepared with three different concentrations individually, 3 μM, 30 μM, and 300 μM. 10% formic acid and PBS were used as positive and negative control respectively (n=6). […] The back of the animals were clipped free of fur with an electric clipper at least 4 hours before application of the sample. Prior to the application of test agents, each mouse received four parallel epidermal abrasions with a sterile needle at one side of the test area while the skin at the opposite side remained intact. Under anesthesia condition, a 0.5 ml sample of the test article was then applied to each mouse by introduction under a double gauze layer to an area of skin approximately 1″×1″ (2.54×2.54 cm) square. The patches were backed with plastic, covered with a non reactive tape and the entire test site wrapped with a binder. Animals will be returned to their cages. […] The Primary Irritation Index (P.I.I.) (sum of the scored reactions divided by 24 (two scoring intervals multiplied by two test parameters multiplied by six mice)) of the test article was calculated following test completion. A material producing a P.I.I. score of greater than or equal to 5.00 would be considered positive; the material would be considered a primary irritant to the skin (Table 2).
compound,measurement,setting,value
CCCCCCCCCCCC[n+]1ccc(-c2c3nc(c(-c4cc[n+](C)cc4)c4ccc([nH]4)c(-c4cc[n+](C)cc4)c4nc(c(-c5cc[n+](C)cc5)c5ccc2[nH]5)C=C4)C=C3)cc1.Cc1ccc(S(=O)(=O)[O-])cc1.Cc1ccc(S(=O)(=O)[O-])cc1.Cc1ccc(S(=O)(=O)[O-])cc1.Cc1ccc(S(=O)(=O)[O-])cc1 [lauryl methyl pyrifrin],primary irritation index,3 μM,0.00
same,evaluation of primary irritation index,3 μM,no irritation
same,primary irritation index,30 μM,0.175
same,erythema observed,"30 μM, after 24 hours, abraded area implied",very slight erythema
same,mice with very slight erythema,"30 μM, after 24 hours",2/6
same,erythema observed,"30 μM, after 72 hours",very slight erythema
same,evaluation of primary irritation index,30 μM,irritation barely perceptible
same,primary irritation index,300 μM,1.4
same,edema observed,"300 μM, after 24 hours",Slight edema
same,erythema observed,"300 μM, after 24 hours, abraded area implied",very slight erythema
same,mice with very slight erythema,"300 μM, after 24 hours",6/6
same,evaluation of primary irritation index,300 μM,slight irritation
same,erythema and edema at the intact area,"intact area, all concentrations except 300 μM TMP",no erythema and edema
